Reference: PubChem BioAssay (NCI)
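Cells were grown in 96-well plates and exposed to each compound for 48 hours at five concentrations; endpoints were interpolated linearly between bracketing concentrations, or set to the highest concentration if not reached. TGI marks complete inhibition of growth.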

Tests used:
Assay in all cases: NCI anticancer screen, dose series, 48 h
BT-549 breast = tested on: BT-549 breast
CAKI-1 renal = tested on: CAKI-1 renal
HOP-62 NSCLC = tested on: HOP-62 NSCLC
K-562 leukemia = tested on: K-562 leukemia
MCF7 breast = tested on: MCF7 breast
RXF 393 renal = tested on: RXF 393 renal
SF-539 CNS = tested on: SF-539 CNS
SNB-19 CNS = tested on: SNB-19 CNS
TK-10 renal = tested on: TK-10 renal
MDA-MB-231 breast = tested on: MDA-MB-231 breast

SMILES | TGI (BT-549 breast) [µM] | TGI (CAKI-1 renal) [µM] | TGI (HOP-62 NSCLC) [µM] | TGI (K-562 leukemia) [µM] | TGI (MCF7 breast) [µM] | TGI (RXF 393 renal) [µM] | TGI (SF-539 CNS) [µM] | TGI (SNB-19 CNS) [µM] | TGI (TK-10 renal) [µM] | TGI (MDA-MB-231 breast) [µM]
COc1ccc(C2=NN(C(N)=S)C(c3ccccc3)C2)cc1 (configuration not stated) | > 100 | > 100 | > 100 | > 100 | 69.6 | 88.4 | > 100 | > 100 | > 100 | 
O=C(Nc1ccccc1)n1[nH]c(=O)n(-c2ccccc2)c1=O | > 100 | > 100 |  | > 100 | > 100 |  | > 100 | > 100 | > 100 | > 100
O=[N+]([O-])c1cc2c(c([N+](=O)[O-])c1)NCc1ccccc1O2 | > 100 | > 100 | > 100 |  | > 100 | > 100 | > 100 |  | > 100 | > 100
NC(=O)C1Cc2cc3c(cc21)OCO3 (configuration not stated) | > 100 | > 100 | > 100 |  | > 100 | > 100 | > 100 | > 100 | > 100 | > 100
NC(=S)N/N=C1/CCCC2CCCC[C@@H]12 (some centres not stated) |  | > 100 | > 100 | > 100 | > 100 | > 100 | > 100 | > 100 | > 100 | > 100
CC(C)(C)c1ccc(-n2c3nc(=O)n(-c4ccccc4CO)c(=O)c-3cc3ccccc32)cc1 | > 100 | > 100 |  | > 100 | > 100 | 55.2 | 88.1 | > 100 | > 100 | > 100
COc1ccc(/C=C2\N=C(SC)N(CN3CCCCC3)C2=O)cc1 |  |  | > 100 | > 100 | > 100 |  |  | > 100 | > 100 | > 100
Cc1ccc2c(c1)CC1(Cc3c(C)cccc3C1=O)C2=O (configuration not stated) |  |  | 71.9 | > 100 | > 100 | > 100 | > 100 | > 100 | > 100 | > 100
COc1c(Br)cc(/C=C(\C#N)c2cccnc2)cc1Br | > 100 | > 100 | > 100 | > 100 | > 100 | > 100 | > 100 | > 100 | > 100 | 
CN(N)/N=N/c1nc[nH]c1[N+](=O)[O-] | > 100 | 40.9 | > 100 | 73 |  | > 100 | > 100 |  | > 100 | 60.9
COCn1cnc2c(=O)n(-c3ccc(OC)cc3)c(=S)n(-c3ccc(OC)cc3)c21 | > 100 | > 100 | > 100 | > 100 | > 100 | > 100 | > 100 |  | > 100 | > 100
COc1ccc(NC(=O)/C(=N/NC(N)=S)C2C(=O)NC(=S)NC2=O)c(OC)c1 | > 100 | > 100 |  | > 100 | > 100 |  | > 100 | > 100 | > 100 | > 100
C/C(=N\NC(=O)c1ccncc1)c1ccccc1F |  | > 10 | > 10 | > 10 | > 10 | > 10 | > 10 | > 10 | > 10 | 
O=c1n(-c2ccccc2)c(=O)n2n1C1Cc3ccccc3C12 (configuration not stated) | > 100 | > 100 | > 100 | > 100 | > 100 |  | > 100 | > 100 | > 100 | > 100
Cc1ccc(/C=C2\CN(C)CC3C2=NN(c2ccccc2)C3c2ccc(C)cc2)cc1 (configuration not stated) | > 100 | > 100 | > 100 | > 100 | > 100 | > 100 |  | > 100 | > 100 | > 100
C#C[C@]1(O)CC[C@H]2[C@@H]3CCC4=C/C(=N/NC(=O)c5cccc6cc7ccccc7nc56)CC[C@@H]4[C@H]3CC[C@@]21CC | > 100 | > 100 | > 100 | > 100 | > 100 | > 100 | > 100 | > 100 |  | > 100
CCN(CC)c1c(-c2c(N(CC)CC)c(OC(C)=O)c3sccn3c2=O)c(=O)n2ccsc2c1OC(C)=O | > 100 | > 100 | 46.9 | > 100 |  |  | > 100 | > 100 | > 100 | 57
Cc1ccc(N(C(=O)Nc2ccc(F)c(Cl)c2)C2=NCC(C)S2)cc1 (configuration not stated) |  | > 100 | > 100 | > 100 | 32.6 |  | > 100 | > 100 | > 100 | > 100
CCOC(=O)[C@@H]1CCN2CN(c3ccc(OC)cc3)N=C(c3ccccc3)[C@@]12c1ccccc1 | 55.2 | > 100 | 62.6 | > 100 | 50 | 35.7 |  | > 100 | > 100 | > 100
COc1ccc(OC2OC(COC(c3ccccc3)(c3ccc(OC)cc3)c3ccc(OC)cc3)C(O)C(O)C2O)cc1 (configuration not stated) | 27 | 16.2 | 24.5 | 10.2 | 14.7 |  | 17 | 26.7 |  | 18.1
Cc1ccc(C(=O)Nc2ccc(CP(=O)(O)O)cc2CP(=O)(O)O)cc1NC(=O)c1cccc(NC(=O)Nc2cccc(C(=O)Nc3cc(C(=O)Nc4ccc(CP(=O)(O)O)cc4CP(=O)(O)O)ccc3C)c2)c1 | > 100 | > 100 | > 100 | > 100 | > 100 | > 100 | > 100 |  | > 100 | > 100
CC(=O)N1C(NN(C)C)CCN1c1ccccc1 (configuration not stated) |  | > 10 | > 10 | > 10 | > 10 | > 10 |  |  | > 10 | > 10
CC(C)=c1sc(=C(C)C)c2c1=NC(C)(C)N=2 | > 100 | > 100 | > 100 |  | > 100 | > 100 | > 100 | > 100 | > 100 | > 100
NC1CC(Cl)c2c(Cl)sc(Cl)c21 (configuration not stated) | > 100 | > 100 | > 100 | > 100 | > 100 | > 100 | > 100 |  | > 100 | > 100
